Test results as given in patent publication US20050080113A1, “Medicinal compositions” (priority 2001, published 2005).

SMILES | melting point [°C]
CCc1nc(-c2cccc(C)c2)c(-c2ccnc(NC(=O)C3CCCC3)c2)s1 [H 29-1, N-[4 [2 ethyl-4 (3-methylphenyl)-1,3 thiazol-5 yl]-2-pyridyl]cyclopentanecarboxamide] | 123 to 125
CC(=O)Nc1cc(-c2sc(C)nc2-c2cccc(Cl)c2)ccn1 [H 30-1, N-[4-[4-(3-chlorophenyl)-2-methyl-1,3-thiazol-5-yl]-2-pyridyl]acetamide] | 112 to 115
CCCc1nc(-c2cccc(Cl)c2)c(-c2ccnc(NC(C)=O)c2)s1 [H 30-3, N-[4-[4-(3-chlorophenyl)-2-propyl-1,3-thiazol-5-yl]-2-pyridyl]acetamide] | 144 to 145
CCc1nc(-c2cccs2)c(-c2ccnc(NC(C)=O)c2)s1 [H 30-4, N-[4 [2 ethyl-4 (2-thienyl)-1,3 thiazol-5 yl]-2 pyridyl]acetamide] | 154 to 155
CSc1ccc(-c2nc(-c3cccc(Cl)c3)c(-c3ccnc(NC(C)=O)c3)s2)cc1 [H 30-5, N-[4 [4 (3 chlorophenyl)-2 [4 (methylthio)phenyl]-1,3 thiazol-5 yl]-2-pyridyl]acetamide] | 207 to 208
CCC(=O)Nc1cc(-c2sc(C)nc2-c2cccc(Cl)c2)ccn1 [H 30-7, N-[4-[4-(3-chlorophenyl)-2-methyl-1,3-thiazol-5-yl]-2-pyridyl]propionamide] | 134 to 135
CCC(=O)Nc1cc(-c2sc(CC)nc2-c2cccc(Cl)c2)ccn1 [H 30-8, N-[4-[4-(3-chlorophenyl)-2-ethyl-1,3-thiazol-5-yl]-2-pyridyl]propionamide] | 132 to 133
CCCc1nc(-c2cccc(Cl)c2)c(-c2ccnc(NC(=O)CC)c2)s1 [H 30-9, N-[4-[4-(3-chlorophenyl)-2-propyl-1,3-thiazol-5-yl]-2-pyridyl]propionamide] | 103 to 104
CCC(=O)Nc1cc(-c2sc(CC)nc2-c2cccs2)ccn1 [H 30-10, N-[4 [2 ethyl-4 (2-thienyl)-1,3 thiazol-5 yl]-2 pyridyl]propionamide] | 187 to 188
CCC(=O)Nc1cc(-c2sc(-c3ccc(SC)cc3)nc2-c2cccc(Cl)c2)ccn1 [H 30-11, N-[4 [4 (3 chlorophenyl)-2 [4 (methylthio)phenyl]-1,3 thiazol-5 yl]-2-pyridyl]propionamide] | 187 to 188
CSc1ccc(-c2nc(-c3cccc(Cl)c3)c(-c3ccnc(NC(=O)C(C)(C)C)c3)s2)cc1 [H 30-12, N-[4 [4 (3 chlorophenyl)-2 [4 (methylthio)phenyl]-1,3 thiazol-5 yl]-2-pyridyl]pivalamide] | 119 to 120
CCc1nc(-c2cccc(C)c2)c(-c2ccnc(NCC3CCCC3)c2)s1 [H 32, N-(cyclopentylmethyl)-4 [2-ethyl-4 (3 methylphenyl)-1,3 thiazol-5 yl]-2 pyridylamine] | 67 to 69
COc1ccc(-c2nc(NC(C)=O)sc2-c2ccnc(NC(C)=O)c2)cc1 [H 38, N-[5 (2 acetylamino-4 pyridyl)-4 (4 methoxyphenyl)-1,3-thiazol-2 yl]acetamide] | 262 to 264
CC(=O)Nc1nc(-c2cccc(C)c2)c(-c2ccnc(C)c2)s1 [H 39, N-[4-(3-methylphenyl)-5-(2-methyl-4-pyridyl)-1,3-thiazol-2-yl]acetamide] | 230 to 231
Cc1cccc(-c2nc(NC(=O)c3cccnc3)sc2-c2ccnc(C)c2)c1 [H 41, N-[4 (3 methylphenyl)-5 (2-methyl-4 pyridyl)-1,3 thiazol-2 yl]nicotinamide] | 175 to 178

Results, then the compound that gave them:

melting point [°C] | SMILES
188 to 189 | Cc1cccc(-c2nc(N)sc2-c2ccnc(N3CCOCC3)c2)c1 [H 34-1, [4 (3 methylphenyl)-5 (2-morpholino-4 pyridyl)-1,3 thiazol-2 yl]amine]
169 to 170 | Cc1cccc(-c2nc(N)sc2-c2ccnc(NC3CCCC3)c2)c1 [H 34-3, [5 (2 cyclopentylamino-4-pyridyl)-4 (3 methylphenyl)-1,3 thiazol-2 yl]amine]
206 to 208 | Nc1nc(-c2cccc(Cl)c2)c(-c2ccnc(N3CCCCC3)c2)s1 [H 35-1, [4 (3 chlorophenyl)-5 (2-piperidino-4 pyridyl)-1,3 thiazol-2 yl]amine]
155 to 157 | Cc1cccc(-c2nc(-c3ccc(S(C)(=O)=O)cc3)sc2N2C=CC=CC2N2CCCCC2)c1 (centres unmarked) [H 35-2, 4 (3 methylphenyl)-2 (4-methylsulfonylphenyl)-5 (2 piperidino-1 pyridyl)-1,3 thiazole]
194 to 195 | Nc1nc(-c2ccc(F)cc2)c(-c2ccnc(NC3CCCCC3)c2)s1 [H 36-1, [5 (2 cyclohexylamino-4-pyridyl)-4 (4 fluorophenyl)-1,3 thiazol-2 yl]amine]
211 to 212 | CNc1nc(-c2cccc(C)c2)c(-c2ccnc(NC3CCCCC3)c2)s1 [H 36-2, N-methyl-[5 (2-cyclohexylamino-4 pyridyl)-4 (3 methylphenyl)-1,3 thiazol-2-yl]amine]
170 to 172 | CNc1nc(-c2cccc(C)c2)c(-c2ccnc(NC3CCCC3)c2)s1 [H 36-3, N-methyl-[5 (2-cyclopentylamino-4 pyridyl)-4 (3 methylphenyl)-1,3 thiazol-2-yl]amine]
110 to 112 | CCc1nc(-c2cccc(C)c2)c(-c2ccnc(NC3CCCCC3)c2)s1 [H 36-4, N-cyclohexyl-4-[2-ethyl-4-(3-methylphenyl)-1,3-thiazol-5-yl]-2-pyridylamine]
197 to 199 | Cc1cccc(-c2nc(-c3ccc(S(C)(=O)=O)cc3)sc2-c2ccnc(NC3CCCCC3)c2)c1 [H 36-5, N-cyclohexyl-4-[4-(3-methylphenyl)-2-(4-methylsulfonylphenyl)-1,3-thiazol-5-yl]-2-pyridylamine]
154 to 156 | Cc1cccc(-c2nc(-c3ccc(S(C)(=O)=O)cc3)sc2-c2ccnc(NC3CCCC3)c2)c1 [H 36-7, N-cyclopentyl-4-[4-(3-methylphenyl)-2-(4-methylsulfonylphenyl)-1,3-thiazol-5-yl]-2-pyridylamine]
200 to 202 | Cc1cccc(-c2nc(-c3ccc(S(C)(=O)=O)cc3)sc2-c2ccnc(N3CCOCC3)c2)c1 [H 36-8, 4 (3 methylphenyl)-2 (4-methylsulfonylphenyl)-5 (2 morpholino-4 pyridyl)-1,3 thiazole]
69 to 71 | CCc1nc(-c2cccc(C)c2)c(-c2ccnc(N3CCOCC3)c2)s1 [H 36-9, 2 ethyl-4 (3-methylphenyl)-5 (2 morpholino-4 pyridyl)-1,3 thiazole]
110 to 111 | CCc1nc(-c2cccc(Cl)c2)c(-c2ccnc(NC3CCCC3)c2)s1 [H 36-11, 4-[4-(3-chlorophenyl)-2-ethyl-1,3-thiazol-5-yl]-N-cyclopentyl-2-pyridylamine]
173 to 174 | Cc1cccc(-c2nc(-c3ccc(S(C)(=O)=O)cc3)sc2-c2ccnc(N(C)C3CCCCC3)c2)c1 [H 37-2, N-cyclohexyl-N-methyl-4-[4 (3 methylphenyl)-2 (4 methylsulfonylphenyl)-1,3 thiazol-5-yl]-2 pyridylamine]
157 to 159 | Cc1cccc(-c2nc(-c3ccc(S(C)(=O)=O)cc3)sc2-c2ccnc(NCC3CCCCC3)c2)c1 [H 37-3, N-cyclohexylmethyl-4 [4-(3 methylphenyl)-2 (4 methylsulfonylphenyl)-1,3 thiazol-5-yl]-2 pyridylamine]
199 to 201 | Cc1cccc(-c2nc(-c3ccc(S(C)(=O)=O)cc3)sc2-c2ccnc(N3CCCC3)c2)c1 [H 37-4, 4 (3 methylphenyl)-2 (4-methylsulfonylphenyl)-5 [2 (1 pyrrolidinyl)-4 pyridyl]-1,3-thiazole]
153 to 154 | Cc1cccc(-c2nc(-c3ccc(S(C)(=O)=O)cc3)sc2-c2ccnc(N3CCN(C)CC3)c2)c1 [H 37-5, 4 (3 methylphenyl)-5 [2-(4 methyl-1 piperazinyl)-4 pyridyl]-2 (4-methylsulfonylphenyl)-1,3 thiazole]
236 to 237 | CC(=O)Nc1nc(-c2cc(C)cc(C)c2)c(-c2ccnc(C)c2)s1 [H 40-1, N-[4 (3,5 dimethylphenyl)-5 (2 methyl-4 pyridyl)-1,3 thiazol-2 yl]acetamide]
185 to 187 | CC(=O)Nc1nc(-c2cccc(C)c2)c(-c2cc(C)nc(C)c2)s1 [H 40-2, N-[5 (2,6 dimethyl-4-pyridyl)-4 (3 methylphenyl)-1,3 thiazol-2 yl]acetamide]
266 to 267 | CC(=O)Nc1nc(-c2cc(C)cc(C)c2)c(-c2cc(C)nc(C)c2)s1 [H 40-3, N-[4 (3,5 dimethylphenyl)-5 (2,6 dimethyl-4 pyridyl)-1,3 thiazol-2 yl]acetamide]
203 to 206 | Cc1cc(C)cc(-c2nc(NC(=O)c3cccnc3)sc2-c2ccnc(C)c2)c1 [H 42-1, N-[4-(3,5-dimethylphenyl)-5-(2-methyl-4-pyridyl)-1,3-thiazol-2-yl]nicotinamide]
267 to 268 | Cc1cc(C)cc(-c2nc(NC(=O)c3cccnc3)sc2-c2cc(C)nc(C)c2)c1 [H 42-2, N-[4 (3,5 dimethylphenyl)-5 (2,6 dimethyl-4 pyridyl)-1,3 thiazol-2 yl]nicotinamide]
201 to 203 | Cc1cccc(-c2nc(NC(=O)c3cccnc3)sc2-c2ccnc(NC3CCCCC3)c2)c1 [H 42-3, N-[5 (2 cyclohexylamino-4-pyridyl)-4 (3 methylphenyl)-1,3 thiazol-2 yl]nicotinamide]
215 to 216 | Cc1cccc(-c2nc(NC(=O)c3cccnc3)sc2-c2ccnc(NC3CCCC3)c2)c1 [H 42-4, N-[5 (2 cyclopentylamino-4 pyridyl)-4 (3 methylphenyl)-1,3 thiazol-2 yl]nicotinamide]
136 to 138 | O=C(Nc1nc(-c2ccc(F)cc2)c(-c2ccnc(NC3CCCCC3)c2)s1)c1cccnc1 [H 42-5, N-[5 (2 cyclohexylamino-4-pyridyl)-4 (4 fluorophenyl)-1,3 thiazol-2 yl]nicotinamide]
229 to 231 | Cc1cccc(-c2nc(NC(=O)c3cccnc3)sc2-c2ccnc(F)c2)c1 [H 42-6, N-[5 (2 fluoro-4 pyridyl)-4 (3 methylphenyl)-1,3 thiazol-2 yl]nicotinamide]
